Test results from PMC11853379, “Glioblastoma Cell Migration, Invasion and Vasculogenic Mimicry Downmodulated by Novel uPAcyclin Derivatives” (Cells, 2025).
Positions of bridges follow the written chain, without caps; N, C: chain ends. Residues, ends and D or L forms follow the SMILES beside them.

Experiments:
[1] = molecular target: T1, integrin αV receptors on the GBM cell surface (U87-MG cells) (Homo sapiens, UniProt P06756); test: Receptor binding assay: displacement of FITC-uPAcyclin from U87-MG living cells; conditions: for increase of binding affinity compared to uPAcyclin / binding affinity compared to uPAcyclin (in words): U87-MG cells; for binding affinity compared to uPAcyclin (in words): displacement of FITC-uPAcyclin
T1 construct: endogenous in cells; host or cells: U87-MG human glioblastoma cells (living, acid-treated, 4 °C)
T1 sequence (P06756 31-889 limits assumed): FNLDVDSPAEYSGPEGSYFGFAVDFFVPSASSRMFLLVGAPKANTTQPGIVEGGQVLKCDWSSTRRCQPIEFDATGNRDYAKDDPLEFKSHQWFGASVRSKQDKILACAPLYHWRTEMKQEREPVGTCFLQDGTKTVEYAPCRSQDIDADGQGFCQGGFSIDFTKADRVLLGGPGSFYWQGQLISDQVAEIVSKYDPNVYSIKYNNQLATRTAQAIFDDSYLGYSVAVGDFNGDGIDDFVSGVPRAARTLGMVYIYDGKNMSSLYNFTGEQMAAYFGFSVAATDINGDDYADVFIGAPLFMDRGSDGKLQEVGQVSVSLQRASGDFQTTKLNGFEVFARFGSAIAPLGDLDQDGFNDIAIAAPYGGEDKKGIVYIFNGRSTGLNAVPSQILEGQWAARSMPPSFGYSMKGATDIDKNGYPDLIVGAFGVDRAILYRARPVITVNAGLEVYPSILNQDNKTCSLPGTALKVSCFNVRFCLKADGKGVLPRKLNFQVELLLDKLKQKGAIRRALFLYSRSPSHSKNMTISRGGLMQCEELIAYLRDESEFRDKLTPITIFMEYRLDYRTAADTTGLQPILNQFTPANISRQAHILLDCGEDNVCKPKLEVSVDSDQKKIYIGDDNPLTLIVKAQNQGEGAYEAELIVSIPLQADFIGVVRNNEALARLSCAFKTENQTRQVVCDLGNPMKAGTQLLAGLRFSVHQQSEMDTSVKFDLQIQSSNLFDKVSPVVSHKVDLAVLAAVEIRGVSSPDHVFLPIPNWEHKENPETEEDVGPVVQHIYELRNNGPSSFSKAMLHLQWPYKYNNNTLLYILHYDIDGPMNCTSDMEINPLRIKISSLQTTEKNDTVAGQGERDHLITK
T1 sequence (P06756 891-1048 limits assumed): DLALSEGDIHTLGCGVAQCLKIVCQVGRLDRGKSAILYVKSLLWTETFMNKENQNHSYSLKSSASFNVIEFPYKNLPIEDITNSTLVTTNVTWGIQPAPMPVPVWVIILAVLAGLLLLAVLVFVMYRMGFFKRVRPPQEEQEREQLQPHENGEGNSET
Experimental: The U87-MG and U251-MG cell lines were harvested and acid-treated, as described. Briefly, 2 × 10^6 cells/sample were pre-incubated for 30 min at 4 °C with uPAcyclin and Ala peptides and subsequently exposed to 50 nM FITC-uPAcyclin for 2 h at 4 °C, as described. The experiments were performed three times, with duplicate samples, and analyzed as reported in the statistical analysis.
This assay confirmed that FITC-uPAcyclin binds specifically to both GBM cell lines and to the HEK-293/αV, whereas little interaction is detected with HEK-293 cells (Supporting Information, Table S7). […] To investigate the ability of novel Ala-scan peptides to compete with uPAcyclin for binding to integrin αV receptors on the GBM cell surface, the specific interaction of FITC-conjugated uPAcyclin with U87-MG living cells was tested via a receptor binding assay. U87-MG GBM cells were pre-incubated with increasing concentrations of unlabeled Ala peptides and then exposed to FITC-uPAcyclin (Figure 1A). […] When considering the relative Kdapp of uPAcyclin variants, it can be inferred that the replacement either of each of the three prolines (Pro^2, Pro^5, Pro^6) or Lys^1 increases the binding affinity of the resulting peptide compared to uPAcyclin. In contrast, the Ala mutation of other residues is detrimental to the peptide binding affinity.
(§1) Figure 1 Binding of Ala peptides to U87-MG cells and effect of uPAcyclin and Ala peptides on U87-MG cellular migration. (A) A total of 2 × 10^6 U87-MG cells were pre-incubated for 30 min at 4 °C with increasing concentrations of unlabeled uPAcyclin and Ala peptides and then exposed to 50 nM of FITC-uPAcyclin for 2 h at 4 °C. Cell surface-associated fluorescence, as percentage of the sample with […], is shown. Experiments were carried out in duplicate, and the data shown here are representative of three independent experiments. (B) 11 × 10^4 U87-MG cells/sample were pre-treated for 40 min at 37 °C with increasing concentrations of uPAcyclin or the indicated Ala peptides and then assayed in Boyden chambers for 5% FBS-dependent migration for 3 h at 37 °C. At the end of incubation, the filters were processed as described in the Methods section. For clarity here and in the following Figures, Ala-x indicates the peptide with substituted x-position. For both assays, the p-values are in the range of 0.005 ≤ p ≤ 0.001, apart from [Ala1]uPAcyclin in the migration assay with p ≤ 0.05.

U87-MG cells = type: cell-based, human; conditions: for inhibitory activity on cell migration, comparison (in words): U87-MG migration toward 5% FBS
Experimental: The migration and invasion assays were performed with Boyden chambers, according to De Vincenzo et al., using 11 × 10^4 U87-MG and U251-MG glioblastoma cells/sample pre-treated for 40 min at 37 °C with the indicated effectors and then allowed to migrate for 3 h or to invade for 5 h at 37 °C toward 5% FBS in DMEM/0.1% BSA. The migrated or invaded cells were reported as a percentage of basal random migration or invasion and analyzed as reported in the Statistical Analyses section. The migration and invasion experiments were conducted in triplicate.
as §1
Alterations of the amino acid sequence may affect the peptide structure and may, in turn, alter its function. To test for differences in the inhibitory activity of the Ala-substituted peptides, U87-MG glioblastoma cells were subjected to a directional migration assay in Boyden chambers towards FBS, in the presence or in the absence of the indicated concentrations of uPAcyclin or one of its Ala-scan derivatives (Figure 1B).

GBM = conditions: surgical resection, radiotherapy and concomitant Temozolomide; extended from 12.1 months; cited from earlier work
Source text: Glioblastoma (GBM) is the most common malignant primary brain tumor, characterized by micro-vascular proliferation, cellular necrosis and the pronounced invasiveness of surrounding parenchima with high recurrency and a high mortality rate. […] In particular, surgery still represents an important pillar of treat ...

| SMILES | improvement in binding compared to parental uPAcyclin ([1]; GBM cells) [fold] | increase of binding affinity compared to uPAcyclin [1] | binding affinity compared to uPAcyclin (in words) [1] | inhibitory activity on cell migration, comparison (in words) (U87-MG cells) | median overall survival (GBM) [months] | IC50 of migration lower / inhibitory activity higher than parental uPAcyclin (U87-MG cells; U87-MG migration) |
| --- | --- | --- | --- | --- | --- | --- |
| CC(=O)N[C@@H](CCCCN)C(=O)N1CCC[C@H]1C(=O)N[C@H]1CCC(=O)NCCCC[C@@H](C(N)=O)NC(=O)[C@H](CC(C)C)NC(=O)[C@H](CCC(=O)O)NC(=O)[C@H](CCC(=O)O)NC(=O)[C@@H]2CCCN2C(=O)[C@H](C)NC(=O)[C@H](CO)NC1=O [[Ala^5]uPAcyclin] (Ac-KPESAPEELK-NH2; lactam 3-10) | 10 | about 1 log | definitely higher than that of the parental uPAcyclin | strong inhibitors |  |  |
| Cn1nnc2c(C(N)=O)ncn2c1=O [Temozolomide] |  |  |  |  | 14.6 |  |
| CC(=O)N[C@@H](CCCCN)C(=O)N[C@@H](C)C(=O)N[C@H]1CCC(=O)NCCCC[C@@H](C(N)=O)NC(=O)[C@H](CC(C)C)NC(=O)[C@H](CCC(=O)O)NC(=O)[C@H](CCC(=O)O)NC(=O)[C@@H]2CCCN2C(=O)[C@@H]2CCCN2C(=O)[C@H](CO)NC1=O [[Ala^2]uPAcyclin] (Ac-KAESPPEELK-NH2; lactam 3-10) |  | about 1 log | definitely higher than that of the parental uPAcyclin | strong inhibitors |  | about 10 fold |
